Experiment [1] concerns isolated pancreatic islets. The experiment can be described thus: Glucose-stimulated insulin secretion in pancreatic islets isolated from treated ZDF rats. In kind it is in vivo, rat. The settings on record: islets of ZDF rats treated 10 mg/kg oral for 3 weeks. Here is the method: Male ZDF fa/fa and ZDF fa+ rats were obtained from Genetic Models (Indianapolis, Ind.), at the age of 6 weeks and used in the experiments at 12 weeks of age, after 3 weeks of oral treatment with vehicle or GW3965 (10 mg/kg). Compounds were given once daily (at 17 h) via oral gavage. At the time of their use, the ZDF fa/fa rats weighed 310-350 g, whereas the age-matched ZDF fa+ rats weighed 245-285 g. ZDF fa+ and ZDF fa/fa animals had free access to diabetogenic chow (Purina 5008). Animals were housed 5 per cage in a temperature and humidity-controlled room with a 12/12-h light-dark cycle. Blood samples were taken 16 h after compound administration via the tail vein and measured on a Konelab 300 (Labsystem) clinical chemistry analyzer. Rat pancreatic islets were prepared by collagenase digestion and density gradient purification. The enzyme collagenase type XI (Sigma Chemical, St. Louis, Mo.) was used for digestion of the pancreas. After an overnight fast, animals were deeply anesthetized and killed. Then, the pancreatic duct was cannulated, and 20 ml of the digestion solution at 37° C. […] Insulin content was measured in the same islets after an overnight alcohol-acid extraction (Ethanol 75%+HCl 0.15 N). Insulin concentrations in the different media were determined by rat insulin ELISA test (Insulin Rat Elite plus, MERCODIA).

Experiment [2] concerns male Zucker Diabetic Fatty fa/fa (ZDF) rat. The experiment can be described thus: Plasma glucose in ZDF rats during and after 3 weeks of oral treatment. In kind it is in vivo. The source says:
The male Zucker Diabetic Fatty fa/fa (ZDF) rat is a model of Type II diabetes. The rats are insulin resistant but normoglycemic from birth and they develop diabetes from about week 7 to week 10 of age. During the transitional period, the animals go through a state of impaired glucose tolerance. Although the animals are hyperinsulinemic before diabetes onset and during the early stages of diabetes, they later lose glucose-stimulated insulin secretion and finally become almost completely insulinopenic. Male ZDF fa/fa and ZDF fa+ rats were obtained from Genetic Models (Indianapolis, Ind.), at the age of 6 weeks and used in the experiments at 12 weeks of age, after 3 weeks of oral treatment with vehicle or GW3965 (10 mg/kg). Compounds were given once daily (at 17 h) via oral gavage. At the time of their use, the ZDF fa/fa rats weighed 310-350 g, whereas the age-matched ZDF fa+ rats weighed 245-285 g. ZDF fa+ and ZDF fa/fa animals had free access to diabetogenic chow (Purina 5008). Animals were housed 5 per cage in a temperature and humidity-controlled room with a 12/12-h light-dark cycle. Blood samples were taken 16 h after compound administration via the tail vein and measured on a Konelab 300 (Labsystem) clinical chemistry analyzer. At the beginning of the study, glycemia was similar in vehicle- and GW3965-treated ZDF rats.

The subject of the next experiment is pancreatic sections. The experiment can be described thus: Apoptosis by TUNEL staining on pancreatic sections. The settings on record: 8 weeks-old ZDF rats, 10 mg/kg for 4 weeks, vehicle 4.55±1.29%, p<0.05. Format: in vivo, rat. The protocol: Islet cell apoptosis was determined by transferase-mediated dUTP nick-end labeling (TUNEL) staining. Cell death was identified by 3′ in situ end labeling of fragmented DNA with biotinylated deoxyuridine-triphosphate. Each pancreatic piece was cut throughout its length into 5 μm thick sections, which were collected on gelatin-coated slides. Four sections at regular intervals were picked in both head and tail pieces. After digestion with Proteinase K (2 μg/ml; Sigma), sections were consecutively washed in TdT buffer (0.5 mol/l cacodylate [pH 6.8], 1 mmol/l cobalt chloride, 0.15 mol/l NaCl) and then incubated at 37° C. with TdT (25U; Boehringer-Mannheim, Mannheim, Germany) and biotinylated dUTP (1 nmol/μl). After washing in TB buffer (300 mmol/l NaCl, 30 mmol/l sodium citrate) to terminate the reaction, incorporation of biotinylated dUTP was detected by a modification of the avidin-biotin complex method. Horseradish peroxidise-conjugated streptavidin-biotin complex was applied (Vector Laboratories). The sections were then developed using DAB as chromogen and lightly counterstained with hematoxylin and mounted in dePex (BDH Laboratory, Poole, England).
Apoptosis have also been estimated using the TUNEL staining method on pancreatic sections of 5 animals of 8 weeks-old ZDF rats treated with GW3965 at 10 mg/kg for 4 weeks.

Regarding `O=C(O)Cc1cccc(OCCCN(Cc2cccc(C(F)(F)F)c2Cl)CC(c2ccccc2)c2ccccc2)c1` [GW3965], the “increase of insulin secretion vs vehicle-treated ZDF rat islets” value in experiment [1] (3.3 mmol/l glucose) was 133.8%; in experiment [1] (16.7 mmol/l glucose), 74.5%. In addition, the “plasma glucose (glycemia) during treatment” value in experiment [2] (10 mg/kg oral once daily, day 6 to day 21, vs vehicle) is “significantly prevented this rise and maintained glycemia at low level”. In addition, the “glycemia and HbA1c” value in experiment [2] (after 21 days of treatment) is “significant decrease”. Moreover, the “glycemia after the end of treatment” value in experiment [2] (day 44, no treatment from day 21, previously 10 mg/kg oral for 3 weeks) is given as “still significantly reduced”. In the experiment with pancreatic sections, the “% of apoptosis by TUNEL staining” value is listed as 1.41±0.96%.
